Results from patent US5624923A, “Tricyclic diazepine vasopressin antagonists and oxytocin antagonists” (priority 1995, dated 1997).

Key:
Rat Hepatic V1 Receptors = biological target: T1, Rat Hepatic V1 Receptors (Rattus norvegicus, UniProt P30560); test: Binding Assay to Rat Hepatic V1 Receptors; settings: for IC50: rat liver membranes, read-out: V1 IC50; for inhibition at 10 µM: 2 h, rat
T1 construct: Rat liver plasma membranes expressing the vasopressin V1 receptor subtypes; from tissue; host or cells: rat liver plasma membranes

[1] = biological target: T2, Rat Kidney Medullary V2 Receptors (Rattus norvegicus, UniProt Q00788); test: Binding Assay to Rat Kidney Medullary V2 Receptors; settings: for IC50: rat kidney medulla membranes, read-out: V2 IC50; for inhibition at 10 µM: rat
T2 construct: Medullary tissues from rat kidneys are dissected out; from tissue; host or cells: rat kidney medulla membranes
In short: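 Membranes were prepared from rat kidney medulla and stored in 50.0 mM Tris-HCl pH 7.4 with 0.2% BSA and 0.1 mM PMSF. Radioligand competition ran 120 min at bench temperature, with 1.0 μM unlabeled ligand defining nonspecific binding. Compounds were added in 50% DMSO; filtration, tritium scintillation counting, IC50 from competition analysis.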

oxytocin receptors = biological target: T3, oxytocin receptors (Rattus norvegicus, UniProt P70536); test: Oxytocin Receptor Binding; settings: for IC50: 1.0 nM [3H]oxytocin; for inhibition at 10 µM: [3H]oxytocin
T3 construct: The uteri are dissected out, cleaned of fat and connective tissues; from tissue; host or cells: uterus of DES-treated female Sprague-Dawley rats
T3 sequence (P70536 1-388): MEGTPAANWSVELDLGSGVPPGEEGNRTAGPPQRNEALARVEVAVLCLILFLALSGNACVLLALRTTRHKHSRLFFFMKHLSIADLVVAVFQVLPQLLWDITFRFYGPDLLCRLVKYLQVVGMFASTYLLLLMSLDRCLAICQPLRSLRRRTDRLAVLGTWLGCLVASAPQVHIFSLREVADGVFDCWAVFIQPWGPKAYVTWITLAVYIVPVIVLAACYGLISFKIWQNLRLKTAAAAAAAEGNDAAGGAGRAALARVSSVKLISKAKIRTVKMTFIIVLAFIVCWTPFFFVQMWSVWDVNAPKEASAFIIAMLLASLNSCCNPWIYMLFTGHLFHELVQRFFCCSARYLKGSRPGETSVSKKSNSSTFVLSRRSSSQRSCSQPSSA
Experimental: Oxytocin Receptor Binding
Female Sprague-Dawley rats weighing approximately 200-250 g are injected intramuscularly (i.m.) with 0.3 mg/kg of body weight of diethylstilbestrol (DES). The rats are sacrificed 18 hours later under pentobarbital anesthesia. The uteri are dissected out, cleaned of fat and connective tissues and rinsed in 50 ml of normal saline. The tissue pooled from six rats is homogenized in 50 ml of […] Tris.HCl, containing 0.5 mM dithiothreitol and 1.0 mM EDTA, adjusted to pH 7.4, using a polytron at setting 6 with three passes of 10 sec each. The homogenate is passed through two (2) layers of cheesecloth and the filtrate centrifuged at 1000× g for 10 min. The clear supernatant is removed and recentrifuged at 165,000× g for 30 min. The resulting pellet containing the oxytocin receptors is resuspended in 50.0 mM Tris.HCl containing 5.0 mM MgCl2 at pH 7.4, to give a protein concentration of 2.5 mg/ml of tissue suspension. This preparation is used in subsequent binding assays with [^3 H]Oxytocin.
Binding of 3,5-[^3 H]Oxytocin ([^3 H]OT) to its receptors is done in microtiter plates using [^3 H]OT, at various concentrations, in an assay buffer of 50.0 mM Tris.HCl, pH 7.4 and containing 5.0 mM MgCl2, and a mixture of protease inhibitors: BSA, 0.1 mg; aprotinin, 1.0 mg; 1,10-phenanthroline, 2.0 mg; […], 10.0 mg; and PMSF, 0.3 mg per 100 ml of buffer solution. Non-specific binding is determined in the presence of 1.0 uM unlabeled OT. The binding reaction is terminated after 60 min , at 22° C. by rapid filtration through glass fiber filters using a Brandel® cell harvester (Biomedical Research and Development Laboratories, Inc., Gaithersburg, Md.). Competition experiments are conducted at equilibrium using 1.0 nM [^3 H]OT and varying the concentration of the displacing agents. The concentrations of agent displacing 50% of [^3 H]OT at its sites (IC50) are calculated by a computer assisted LUNDON-2 program (LUNDON SOFTWARE INC., Ohio, USA).

Vasopressin V1 = Vasopressin V1 Antagonist Activity in Conscious Rats (vasopressin vasopressor response); assay type: in vivo, rat
In short: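 Conscious rats are restrained supine, and under local 2% procaine a PE 10/20 cannula is passed through the ventral caudal tail artery into the lower abdominal aorta. The caudal vein is cannulated for intravenous dosing. Blood pressure is recorded with a Statham P23Db transducer, and vasopressin injections are repeated after compound dosing. Percent antagonism is calculated against the pre-drug vasopressor response taken as 100%.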

Vasopressin V2 = Vasopressin V2 Antagonist Activity in Conscious Hydrated Rats; assay type: in vivo, rat; settings: 10 mg/kg orally, AVP 0.4 μg/kg i.p.
In short: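 Four-hour urine output, osmolality and electrolytes (Na+, K+, Cl−) recorded in water-loaded rats (30 mL/kg deionized water orally) given AVP i.p. at 0.4 μg/kg. Test compounds were given orally at 0.1–100 mg/kg 1 h before AVP; 2–4 rats per compound.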

T2 sequence (Q00788 whole entry): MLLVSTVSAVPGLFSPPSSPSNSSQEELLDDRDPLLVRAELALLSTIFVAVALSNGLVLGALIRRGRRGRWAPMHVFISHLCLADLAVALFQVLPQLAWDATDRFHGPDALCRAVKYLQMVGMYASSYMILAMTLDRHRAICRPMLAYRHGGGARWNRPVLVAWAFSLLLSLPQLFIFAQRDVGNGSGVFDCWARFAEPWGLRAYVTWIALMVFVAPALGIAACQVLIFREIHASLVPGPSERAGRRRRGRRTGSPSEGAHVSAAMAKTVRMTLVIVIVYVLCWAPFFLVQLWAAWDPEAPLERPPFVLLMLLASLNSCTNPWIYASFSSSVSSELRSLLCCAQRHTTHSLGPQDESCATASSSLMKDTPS
T1 sequence (P30560 whole entry): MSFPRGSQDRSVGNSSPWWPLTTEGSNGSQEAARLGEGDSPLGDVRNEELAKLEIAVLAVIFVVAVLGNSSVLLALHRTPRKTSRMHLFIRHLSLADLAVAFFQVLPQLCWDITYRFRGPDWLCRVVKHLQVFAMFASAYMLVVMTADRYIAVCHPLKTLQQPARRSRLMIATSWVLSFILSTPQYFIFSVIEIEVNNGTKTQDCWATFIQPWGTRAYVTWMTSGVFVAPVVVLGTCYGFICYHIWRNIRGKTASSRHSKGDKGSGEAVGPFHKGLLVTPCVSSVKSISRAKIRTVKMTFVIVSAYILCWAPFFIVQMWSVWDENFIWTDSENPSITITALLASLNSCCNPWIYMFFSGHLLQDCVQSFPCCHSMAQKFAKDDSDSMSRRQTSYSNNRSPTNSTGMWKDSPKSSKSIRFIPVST

SMILES	IC50 (Rat Hepatic V1 Receptors) [nM]	IC50 [1] [nM]	IC50 (oxytocin receptors) [nM]	inhibition at 10 µM (oxytocin receptors) [%]	inhibition at 10 µM (Rat Hepatic V1 Receptors) [%]	inhibition at 10 µM [1] [%]	also measured
Cc1cccc(C(=O)Nc2ccc(C(=O)N3Cc4cccn4-c4ccccc43)cc2)c1C [Example 21, N-[4-(pyrrolo[1,2-a]quinoxalin-5(4H)-ylcarbonyl)phenyl]-2,3-dimethyl-benzamide]	930	87	2450	67	–	–	–
Cc1ccccc1CC(=O)Nc1ccc(C(=O)N2Cc3cccn3-c3ccccc32)cc1 [Example 36, N-[4-(pyrrolo[1,2-a]quinoxalin-5(4H)-ylcarbonyl)phenyl]-2-methylbenzene-acetamide]	100	54	2450	67	–	–	Max. % Inhibition (Vasopressin V1; 30 mg/kg i.v.): 71%; Time (of max. % inhibition) (Vasopressin V1; 30 mg/kg i.v.): 60 min
Cc1cc(C(=O)N2Cc3cccn3Cc3ccccc32)ccc1NC(=O)c1ccccc1C [Example 96, N-[4-(5H-pyrrolo[2,1-c][1,4]benzodiazepin-10(11H)-ylcarbonyl)-2-methylphenyl]-2-methylbenzamide]	56	11	1200	94	–	–	–
Cc1ccccc1C(=O)Nc1ccc(C(=O)N2CCc3cccn3-c3ccccc32)cc1 [Example 297]	270	33	4000	76	–	–	Osmolality (Vasopressin V2): 796 mOsm/kg; Urine Volume (Vasopressin V2): 7 ml/4 hrs
O=C(Nc1ccc(C(=O)N2Cc3cccn3Cc3ccccc32)cc1)c1cccc(Cl)c1Cl [Example 468, N-[4-(5H-pyrrolo[2,1-c][1,4]benzodiazepin-10(11H)-ylcarbonyl)phenyl]-2,3-dichlorobenzamide]	27	29	260	96	–	–	Max. % Inhibition (Vasopressin V1; 10 mg/kg i.v.): 68%; Time (of max. % inhibition) (Vasopressin V1; 10 mg/kg i.v.): 30 min
Cc1cc(C(=O)N2Cc3cccn3Cc3ccccc32)cc(C)c1NC(=O)c1ccc(Cl)cc1Cl [Example 473]	–	–	–	20	90	56	Osmolality (Vasopressin V2): 1493 mOsm/kg; Urine Volume (Vasopressin V2): 2.3 ml/4 hrs
Cc1ccccc1C(=O)Nc1ccc(C(=O)N2CCc3nncn3-c3ccccc32)cc1 [Example 486, N-[4-[(4,5-Dihydro-6H-[1,2,4]triazolo[4,3-a][1,5]-benzodiazepin-6-yl)carbonyl)phenyl]-2-methylbenzoate]	–	–	–	18	39	77	–
O=C(c1ccc(NP(=O)(c2ccccc2)c2ccccc2)cc1)N1Cc2cccn2Cc2ccccc21 [Example 491, 10-[4-[(Diphenylphosphinyl)amino]benzoyl]-10,11-dihydro-5H-pyrrolo-[2,1-c][1,4]benzodiazepine]	–	–	–	46	82	83	–
O=Cc1ccc2n1Cc1ccccc1N(C(=O)c1ccc(NC(=O)c3ccc(Cl)cc3Cl)cc1)C2 [Example 580, 2,4-Dichloro-N-[4-[(3-formyl-5H-pyrrolo[2,1-c][1,4]benzodiazepin-10(11H)-yl)carbonyl]phenyl]benzamide]	200	80	2960	79	–	–	–
O=C(Nc1ccc(C(=O)N2Cc3cccn3Cc3ccccc32)cc1)C(Cl)c1ccccc1 (stereo not drawn) [Example 583, α-Chloro-N-[4-(5H-pyrrolo[2,1-c][1,4]benzodiazepin-10(11H)-ylcarbonyl)phenyl]benzeneacetamide]	54	27	4000	61	–	–	–
O=C(CCl)Nc1ccc(C(=O)N2Cc3cccn3Cc3ccccc32)cc1 [Example 589, 2-Chloro-N-[4-(5H-pyrrolo[2,1-c][1,4]benzodiazepin-10(11H) -ylcarbonyl)phenyl]acetamide]	–	–	2900	79	91	82	–
O=C(CN1CCOCC1)N(Cc1ccccc1Cl)c1ccc(C(=O)N2Cc3cccn3Cc3ccccc32)cc1 [Example 591, N-[(2-Chlorophenyl)methyl]-N-[4-(5H-pyrrolo[2,1-c][1,4]benzodiazepin-10(11H) -ylcarbonyl)phenyl]-4-morpholineacetamide]	–	–	–	29	45	64	–
CCOC(=O)c1ccc2n1Cc1ccccc1N(C(=O)c1ccc(NC(=O)c3ccc(Cl)cc3Cl)c(C)c1)C2 [Example 592, Ethyl 10-[4-[(2,4-dichlorobenzoyl)amino]-3-methylbenzoyl]-10,11-dihydro-5H-pyrrolo[2,1-c][1,4]benzodiazepine-3-carboxylate]	3300	240	–	41	–	–	Max. % Inhibition (Vasopressin V1; 30 mg/kg i.v.): 37%; Time (of max. % inhibition) (Vasopressin V1; 30 mg/kg i.v.): 90 min
O=C(Nc1ccc(C(=O)N2Cc3ccc(C(=O)C(Cl)(Cl)Cl)n3Cc3ccccc32)cc1)c1ccc(Cl)cc1Cl [Example 598, N-[4-[[3-(Trichloroacetyl)-5H-pyrrolo[2,1-c][1,4]benzodiazepin-10(11H) -yl]carbonyl]phenyl]-2,4-dichlorobenzamide]	–	–	–	2	58	93	–
CN(C)Cc1ccc2n1Cc1ccccc1N(C(=O)c1ccc(NC(=O)c3ccc(Cl)cc3Cl)cc1)C2 [Example 664]	120	48	1400	95	–	–	–
O=C(Nc1ccc(C(=O)N2Cc3ccc(CN4CCCC4)n3Cc3ccccc32)cc1)c1ccc(Cl)cc1Cl [Example 665, N-[4-[[3-(1-pyrrolidinylmethyl)-5H-pyrrolo[2,1-c][1,4]benzodiazepin-10(11H)-yl]carbonyl]phenyl)-2,4-dichlorobenzamide]	56	39	1000	97	–	–	–
O=C(Nc1ccc(C(=O)N2Cc3ccc(CN4CCOCC4)n3Cc3ccccc32)cc1)c1ccc(Cl)cc1Cl [Example 666, N-[4-[[3-(4-morpholinomethyl)-5H-pyrrolo[2,1-c][1,4]benzodiazepin-10(11H)-yl]carbonyl]phenyl]-2,4-dichlorobenzamide]	160	13	2100	83	–	–	–
CCN(CC)Cc1ccc2n1Cc1ccccc1N(C(=O)c1ccc(NC(=O)c3ccc(Cl)cc3Cl)cc1)C2 [Example 667, N-[4-[[3-[(diethylamino)methyl]-5H-pyrrolo[2,1-c][1,4]benzodiazepin-10(11H)-yl]carbonyl]phenyl]-2,4-dichlorobenzamide]	170	13	1600	89	–	–	–
CCOC(=O)c1ccc2c(c1)N(C(=O)c1ccc(NC(=O)c3ccccc3C)cc1)Cc1cccn1C2 [Example 676, Ethyl 10,11-Dihydro-10-[4-[(2-methylbenzoyl)amino]benzoyl]-5H-pyrrolo[2,1-c][1,4]benzodiazepin-8-carboxylate]	–	–	–	32	41	89	–
